What was measured:
Format in all cases: cell-based
[1] = system: BT-474; experiment: MTS anti-proliferative assay, BT-474; details: Homo sapiens, 168 h, BT-474, luminal B, treatment for 7 days
Procedure: (§1) The anti-proliferative effects and IC50 values of the compounds in the BC cell line panel were determined by MTS assay.
(§2) The cells, except Sk-Br-3, AU565 and BT-474 were maintained in a mixture of Dulbecco's modified Eagle's medium and Ham's F12 medium (1:1) (DMEM/F12) without phenol red supplemented with 5% fetal bovine serum (FBS) and 1× antibiotic-antimycotic (100 U/mL penicillin G sodium, 100 μg/mL streptomycin sulfate and 0.25 μg/mL amphotericin B) and were plated separately in flasks in a humidified incubator (5% CO2: 95% air, 37° C.). The media used for Sk-Br-3, AU565 and BT-474 cell lines was described in (1) Brueggemeier et al., J. Steroid Biochem. Mol. Biol., 2005; 95:129-136; and (2) Diaz-Cruz et al., J. Clin. Endocrinol. Metab., 2005; 90:2563-2570. The media were changed every 2-days. When the cells grew to about 80% confluence, cells were washed twice with calcium- and magnesium-free phosphate-buffered saline (PBS, pH 7.4), and then trypsinized with 0.05% trypsin-5.3 mm EDTA. The trypsinization was stopped by addition of culture medium with 5% FBS. After centrifugation, the dissociated cells were resuspended in the same medium and subcultured into 75-cm^2 culture flasks at a ratio of 1:5 flasks.
(§3) The BC cells were seeded at the density of 1,000 cells per well (100 μL) into 96 well plate in DMEM/F-12 (1:1), supplemented with 5% (v/v) FCS and incubated overnight at 37° C. Test compounds are solubilized in dimethyl sulfoxide (DMSO), diluted in cell culture medium to a range of final assay concentrations of 1 nM to 10 μM, added to cells and incubated for 7 days at 37° C. The medium including the test compound are refreshed at days 3 and 5. The MTS assay are carried out by using the CellTiter 96® AQueous One Solution Cell Proliferation Assay kit following the manufacturer's instruction.

[2] = system: CAMA-1; experiment: MTS anti-proliferative assay, CAMA-1; details: Homo sapiens, 168 h, CAMA-1, luminal, treatment for 7 days
Procedure: as §1, §2, §3

[3] = system: MDA-MB-468; experiment: MTS anti-proliferative assay, MDA-MB-468; details: Homo sapiens, 168 h, MDA-MB-468, TNBC, basal B, treatment for 7 days
Procedure: as §1, §2, §3

[4] = system: Hs578T; experiment: MTS anti-proliferative assay, Hs578T; details: Homo sapiens, Hs-578T, 168 h, TNBC, basal B, treatment for 7 days
Procedure: as §1, §2, §3

[5] = system: Sk-Br-3; experiment: MTS anti-proliferative assay, Sk-Br-3; details: Homo sapiens, 168 h, Sk-Br-3, luminal, treatment for 7 days
Procedure: as §1, §2, §3

[6] = system: HCC1937; experiment: MTS anti-proliferative assay, HCC1937; details: Homo sapiens, 168 h, HCC1937, TNBC, basal, treatment for 7 days
Procedure: as §1, §2, §3

[7] = system: panel of breast cancer cell lines; experiment: Anti-proliferative assays, panel of BC cell lines (overall statements); details: for potency as compared to Mps1-IN-1: in some or all of the cell based assays in the panel
Procedure: This example describes the development of novel small molecule Mps1/TTK inhibitors as targeted therapies for TNBC and other aggressive BC using drug discovery technologies. Using computational modeling, medicinal chemistry, biochemistry and cell culture assays, the inventors have identified novel small molecules as potential Mps1/TTK inhibitors. The compounds were evaluated in anti-proliferative assays of a panel of 15 BC cell lines and further examined for their ability to inhibit a variety of Mps1-dependent biological functions.
as §1, §2, §3

[8] = system: MCF-7; experiment: MTS anti-proliferative assay, MCF-7; details: Homo sapiens, MCF7, 168 h, MCF-7, luminal A, treatment for 7 days
Procedure: as §1, §2, §3

[9] = system: T47D; experiment: MTS anti-proliferative assay, T47D; details: Homo sapiens, 168 h, luminal, treatment for 7 days
Procedure: as §1, §2, §3

[10] = system: CAL-51; experiment: MTS anti-proliferative assay, CAL-51; details: Homo sapiens, 168 h, CAL-51, TNBC, basal, treatment for 7 days
Procedure: as §1, §2, §3

[11] = system: Cal-51 cells; experiment: Spindle checkpoint assay, Cal-51; details: for abrogating the spindle checkpoint: Cal-51, at 1 μM
Procedure: For spindle checkpoint assays, S-phase arrested cells treated with candidate compounds were released into medium containing the spindle poison nocodazole. Because the spindle checkpoint prevents the metaphase to anaphase transition in the presence of spindle damage, compounds that block the spindle checkpoint will lead to a decreased number of mitotic cells in the presence of nocodazole. Briefly, cells were arrested in S-phase with a 24 hour treatment with 2 mM thymidine. Three hours after removing thymidine to release cells from S-phase arrest, nocodazole was added at 200 ng/mL. After 12 hours in the presence of nocodazole, cells were fixed and stained with mouse anti-cyclin B and Hoechst, and the percentage of cyclin B positive cells with condensed chromosomes was determined in triplicate samples.

[12] = system: BT-20; experiment: MTS anti-proliferative assay, BT-20; details: Homo sapiens, 168 h, BT-20, TNBC, basal A, treatment for 7 days
Procedure: as §1, §2, §3

[13] = system: AU565; experiment: MTS anti-proliferative assay, AU565; details: Homo sapiens, 168 h, AU565, luminal, treatment for 7 days
Procedure: as §1, §2, §3

[14] = system: MDA-MB-231; experiment: MTS anti-proliferative assay, MDA-MB-231; details: Homo sapiens, 168 h, MDA-MB-231, TNBC, basal B, treatment for 7 days
Procedure: as §1, §2, §3

[15] = system: normal breast epithelial cells; experiment: Primary cultures of normal breast epithelial cells; details: up to 20 μM
Procedure: No notable cytotoxicity was observed after 24 hours of treatment at concentrations as high as 10 μM.

| SMILES | IC50 [1] | IC50 [2] | IC50 [3] | IC50 [4] | IC50 [5] | IC50 [6] | potency as compared to Mps1-IN-1 [7] | anti-proliferative effect, selectivity toward TNBC cells ([7]; preliminary studies of the initial series) | IC50 [8] | IC50 [9] | IC50 [10] | abrogating the spindle checkpoint [11] | ability of cells to arrest in response to nocodazole ([11]; Cal-51, nocodazole 200 ng/mL, 12 hours) | IC50 [12] | IC50 [13] | IC50 [14] | inhibition of normal breast epithelial cells [15] |
| --- | --- | --- | --- | --- | --- | --- | --- | --- | --- | --- | --- | --- | --- | --- | --- | --- | --- |
| COc1cc(N2CCC(O)CC2)ccc1Nc1nc(Nc2ccccc2S(=O)(=O)C(C)C)c2cc[nH]c2n1 [Compound 1, 1-(4-((4-((2-(isopropylsulfonyl)phenyl)amino)-7H-pyrrolo[2,3-d]pyrimidin-2-yl)amino)-3-methoxyphenyl)piperidin-4-ol] | > 10000 nM | 360 nM | 190 nM | > 10000 nM | > 10000 nM | 730 nM | significantly more potent | moderate selectivity | 440 nM | > 10000 nM | 230 nM | more effective than IN-1, AZ3146, or compound 5 | dose-dependent reduction | 350 nM | > 10000 nM | > 10000 nM | no inhibition or incomplete dose-response curves |
| COc1cc(N2CCOCC2)ccc1Nc1nc(NC2CCCCC2)c2cc[nH]c2n1 [Compound 13, N4-cyclohexyl-N2-(2-methoxy-4-morpholinophenyl)-7H-pyrrolo[2,3-d]pyrimidine-2,4-diamine] | 50 nM | 1100 nM | 570 nM | > 10000 nM | 780 nM | 1090 nM | significantly more potent |  | > 10000 nM | > 10000 nM | 450 nM | most effective |  | 570 nM | 900 nM | > 10000 nM | no inhibition or incomplete dose-response curves |

— patent US10611765B2, “Pyrrolopyrimidine derivatives as Mps1/TTK kinase inhibitors” (Ohio State Innovation Foundation, priority 2014, dated 2020)
